Assay results taken from patent US11771709B2, “ALK protein degradation agent and anti-tumor application thereof” (ShanghaiTech University, priority 2017, dated 2023).

Experiments:
[1] = test system: NCI-H3122 (EML4-ALK, V1) cells; assay: Growth inhibition IC50 in lung cancer H3122 cells (Cell Titer Blue / Cell Titer Glo); settings: Homo sapiens, NCI-H3122, H3122 cells, CTB (Cell Titer Blue)
Procedure: (§1) SR (NPM-ALK) and NCI-H2228 (EML4-ALK, V3) cells were purchased from ATCC. […] All Cells were cultured in RPMI1640 medium with 10% FBS and Penicillin-Streptomycin in 37° C. incubator with 5% CO2.
(§2) Cells were seeded at specific density in 96 well plates one day before treatment. […] Viable cells were measured via CCK8 reagent and IC50s were calculated via Prism Graphad. Experiments were repeated at least three times.

[2] = biological target: T1, ALK protein in H3122 (EML4-ALK) cells (Homo sapiens, UniProt Q9UM73); assay: Western blot of ALK protein level (degradation, DC50), ALK phosphorylation and downstream signaling in H3122 cells; type: cell-based; settings: ALK protein degradation in H3122 cells
T1 construct: EML4 (Echinoderm microtubule-associated protein-like 4, Q9HC35) fusion partner, variant 1; host or cells: NCI-H3122 lung adenocarcinoma cells; the other entry of the earlier key: EML4 (Q9HC35, Echinoderm microtubule-associated protein-like 4)
T1 sequence (Q9UM73 with tags, fused parts or gaps): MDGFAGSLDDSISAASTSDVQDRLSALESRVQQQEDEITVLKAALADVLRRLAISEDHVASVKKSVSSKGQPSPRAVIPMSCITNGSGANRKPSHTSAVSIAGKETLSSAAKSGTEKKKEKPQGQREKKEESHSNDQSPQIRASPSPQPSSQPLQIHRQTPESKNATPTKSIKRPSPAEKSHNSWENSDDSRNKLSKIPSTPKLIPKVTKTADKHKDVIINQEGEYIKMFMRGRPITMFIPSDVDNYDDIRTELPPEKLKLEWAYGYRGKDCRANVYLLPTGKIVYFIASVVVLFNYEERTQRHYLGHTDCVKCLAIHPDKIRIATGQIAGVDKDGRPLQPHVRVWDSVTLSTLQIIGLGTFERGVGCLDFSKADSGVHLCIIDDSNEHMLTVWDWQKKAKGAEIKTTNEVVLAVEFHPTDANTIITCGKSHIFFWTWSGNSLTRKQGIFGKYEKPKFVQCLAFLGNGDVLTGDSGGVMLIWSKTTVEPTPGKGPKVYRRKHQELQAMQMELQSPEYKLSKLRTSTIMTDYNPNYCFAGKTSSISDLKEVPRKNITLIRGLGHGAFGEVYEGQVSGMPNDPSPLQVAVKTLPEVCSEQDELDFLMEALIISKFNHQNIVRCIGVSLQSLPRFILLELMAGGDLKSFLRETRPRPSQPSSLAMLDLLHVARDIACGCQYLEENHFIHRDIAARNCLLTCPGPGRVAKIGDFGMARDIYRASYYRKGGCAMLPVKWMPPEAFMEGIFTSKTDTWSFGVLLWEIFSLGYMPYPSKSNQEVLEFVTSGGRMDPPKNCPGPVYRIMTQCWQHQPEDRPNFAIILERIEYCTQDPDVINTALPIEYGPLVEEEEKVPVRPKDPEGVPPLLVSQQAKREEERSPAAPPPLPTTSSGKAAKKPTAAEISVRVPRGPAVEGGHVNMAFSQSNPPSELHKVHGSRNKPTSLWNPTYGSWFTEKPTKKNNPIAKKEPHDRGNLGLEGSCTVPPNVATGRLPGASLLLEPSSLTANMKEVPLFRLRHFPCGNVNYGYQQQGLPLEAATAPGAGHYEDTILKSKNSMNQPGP
Procedure: (§3) Cancer cells were seeded in 1 ml RPMI1640 medium in 24-well plate at the density of 3×10^5 or 1.5×10^5 cells/ml. […] Then cells were washed twice with PBS and lyzed in RIPA lysis buffer with Halt Proteinase and Phosphotase inhibitor. Equal amount of proteins were loaded to run SDS-PAGE gels after denature. The gels were blotted to PVDF membrane. After incubating with first and secondary antibodies, the images were developed using SuperSignal West Pico Chemiluminescent Substrate.
(§4) DC50 (concentration required to degrade protein by half) were calculated based on the intensity from western blot, and data were analyzed via Prism GraphPad with non-linear regression.

[3] = biological target: T2, ALK protein in SR (NPM-ALK) cells (Homo sapiens, UniProt Q9UM73); assay: Western blot of ALK protein level (degradation, DC50), ALK phosphorylation and downstream signaling in SR cells; type: cell-based
T2 construct: NPM (nucleophosmin, NPM1, P06748) fusion partner; host or cells: SR (ALCL) cells; the other entry of the earlier key: NPM1 (P06748, Nucleophosmin)
T2 sequence (Q9UM73 with tags, fused parts or gaps): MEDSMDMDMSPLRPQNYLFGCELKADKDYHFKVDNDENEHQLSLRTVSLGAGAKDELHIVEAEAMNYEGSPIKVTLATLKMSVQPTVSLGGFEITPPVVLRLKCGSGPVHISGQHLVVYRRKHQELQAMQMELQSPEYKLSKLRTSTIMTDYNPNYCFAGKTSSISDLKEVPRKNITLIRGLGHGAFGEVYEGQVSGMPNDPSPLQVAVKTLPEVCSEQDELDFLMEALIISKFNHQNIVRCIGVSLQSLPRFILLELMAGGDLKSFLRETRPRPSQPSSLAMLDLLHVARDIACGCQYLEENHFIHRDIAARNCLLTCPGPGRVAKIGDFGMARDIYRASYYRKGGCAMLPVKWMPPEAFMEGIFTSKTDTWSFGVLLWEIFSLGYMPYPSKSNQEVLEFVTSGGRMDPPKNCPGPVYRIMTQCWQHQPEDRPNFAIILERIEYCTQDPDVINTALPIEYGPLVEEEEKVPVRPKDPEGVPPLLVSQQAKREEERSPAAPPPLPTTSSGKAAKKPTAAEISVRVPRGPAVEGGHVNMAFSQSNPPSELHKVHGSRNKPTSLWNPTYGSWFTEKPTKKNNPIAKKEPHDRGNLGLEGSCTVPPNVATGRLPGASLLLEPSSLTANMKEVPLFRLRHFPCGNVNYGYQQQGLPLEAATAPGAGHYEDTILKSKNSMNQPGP
Procedure: as §3, §4

[4] = test system: SR (NPM-ALK) cells; assay: Growth inhibition IC50 in ALCL SR cells (CCK8/WST, 72 hours); type: cell-based; settings: 72 h, SR cells, WST; Brigatinib-based PROTAD molecules (Table 3)
Procedure: as §1, §2

[5] = ALK protein degradation in SR cells

| Structure (SMILES) | IC50 [1] [nM] | DC50 [2] [nM] | DC50 [3, 5] [nM] | IC50 [4] [nM] | further results |
| --- | --- | --- | --- | --- | --- |
| Cc1cc(Nc2ncc(Cl)c(Nc3ccccc3S(=O)(=O)C(C)C)n2)c(OC(C)C)cc1C1CCN(C(=O)CCOCCOCCOCCC(=O)N[C@H](C(=O)N2C[C@H](O)C[C@H]2C(=O)NCc2ccc(-c3scnc3C)cc2)C(C)(C)C)CC1 [SIAIS151039, (2S,4R)-1-((S)-2-(tert-butyl)-16-(4-(4-((5-chloro-4-((2-(isopropylsulfonyl)phenyl)amino)pyrimidin-2-yl)amino)-5-isopropoxy-2-methylphenyl)piperidin-1-yl)-4,16-dioxo-7,10,13-trioxa-3-azahexadecanoyl)-4-hydroxy-N-(4-(4-methylthiazol-5-yl)benzyl)pyrrolidine-2-carboxamide] | 441 | – | – | – | – |
| Cc1cc(Nc2ncc(Cl)c(Nc3ccccc3S(=O)(=O)C(C)C)n2)c(OC(C)C)cc1C1CCN(C(=O)CCCCCCCCCC(=O)N[C@H](C(=O)N2C[C@H](O)C[C@H]2C(=O)NCc2ccc(-c3scnc3C)cc2)C(C)(C)C)CC1 [SIAIS074026, (2S,4R)-1-((S)-2-(11-(4-(4-((5-chloro-4-((2-(isopropylsulfonyl)phenyl)amino)pyrimidin-2-yl)amino)-5-isopropoxy-2-methylphenyl)piperidin-1-yl)-11-oxoundecanamido)-3,3-dimethylbutanoyl)-4-hydroxy-N-(4-(4-methylthiazol-5-yl)benzyl)pyrrolidine-2-carboxamide] | 2560 | – | – | – | – |
| Cc1cc(Nc2ncc(Cl)c(Nc3ccccc3S(=O)(=O)C(C)C)n2)c(OC(C)C)cc1C1CCN(C(=O)CCCCCNc2cccc3c2C(=O)N(C2CCC(=O)NC2=O)C3=O)CC1 (stereo not drawn) [SIAIS151043, 4-((6-(4-(4-((5-chloro-4-((2-(isopropylsulfonyl)phenyl)amino)pyrimidin-2-yl)amino)-5-isopropoxy-2-methylphenyl)piperidin-1-yl)-6-oxohexyl)amino)-2-(2,6-dioxopiperidin-3-yl)isoindoline-1,3-dione] | 156 | – | – | – | – |
| Cc1cc(Nc2ncc(Cl)c(Nc3ccccc3S(=O)(=O)C(C)C)n2)c(OC(C)C)cc1C1CCN(C(=O)COCCOCC(=O)N[C@H](C(=O)N2C[C@H](O)C[C@H]2C(=O)NCc2ccc(-c3scnc3C)cc2)C(C)(C)C)CC1 [SIAIS151042, (2S,4R)-1-((S)-2-(2-(2-(2-(4-(4-((5-chloro-4-((2-(isopropylsulfonyl)phenyl)amino)pyrimidin-2-yl)amino)-5-isopropoxy-2-methylphenyl)piperidin-1-yl)-2-oxoethoxy)ethoxy)acetamido)-3,3-dimethylbutanoyl)-4-hydroxy-N-(4-(4-methylthiazol-5-yl)benzyl)pyrrolidine-2-carboxamide] | 153 | – | – | – | – |
| Cc1cc(Nc2ncc(Cl)c(Nc3ccccc3S(=O)(=O)C(C)C)n2)c(OC(C)C)cc1C1CCN(C(=O)CCOCCOCCC(=O)N[C@H](C(=O)N2C[C@H](O)C[C@H]2C(=O)NCc2ccc(-c3scnc3C)cc2)C(C)(C)C)CC1 [SIAIS151038, (2S,4R)-1-((S)-2-(3-(2-(3-(4-(4-((5-chloro-4-((2-(isopropylsulfonyl)phenyl)amino)pyrimidin-2-yl)amino)-5-isopropoxy-2-methylphenyl)piperidin-1-yl)-3-oxopropoxy)ethoxy)propanamido)-3,3-dimethylbutanoyl)-4-hydroxy-N-(4-(4-methylthiazol-5-yl)benzyl)pyrrolidine-2-carboxamide] | 393 | – | – | – | – |
| Cc1cc(Nc2ncc(Cl)c(Nc3ccccc3S(=O)(=O)C(C)C)n2)c(OC(C)C)cc1C1CCN(C(=O)CCNc2cccc3c2C(=O)N(C2CCC(=O)NC2=O)C3=O)CC1 (stereo not drawn) [SIAIS151034, 4-((3-(4-(4-((5-chloro-4-((2-(isopropylsulfonyl)phenyl)amino)pyrimidin-2-yl)amino)-5-isopropoxy-2-methylphenyl)piperidin-1-yl)-3-oxopropyl)amino)-2-(2,6-dioxopiperidin-3-yl)isoindoline-1,3-dione] | 14 | – | – | – | – |
| Cc1cc(Nc2ncc(Cl)c(Nc3ccccc3S(=O)(=O)C(C)C)n2)c(OC(C)C)cc1C1CCN(C(=O)CCOCCOCCOCCOCCOCCC(=O)N[C@H](C(=O)N2C[C@H](O)C[C@H]2C(=O)NCc2ccc(-c3scnc3C)cc2)C(C)(C)C)CC1 [SIAIS151041, (2S,4R)-1-((S)-2-(tert-butyl)-22-(4-(4-((5-chloro-4-((2-(isopropylsulfonyl)phenyl)amino)pyrimidin-2-yl)amino)-5-isopropoxy-2-methylphenyl)piperidin-1-yl)-4,22-dioxo-7,10,13,16,19-pentaoxa-3-azadocosanoyl)-4-hydroxy-N-(4-(4-methylthiazol-5-yl)benzyl)pyrrolidine-2-carboxamide] | 332 | – | – | – | – |
| Cc1cc(Nc2ncc(Cl)c(Nc3ccccc3S(=O)(=O)C(C)C)n2)c(OC(C)C)cc1C1CCN(C(=O)CCCCNc2cccc3c2C(=O)N(C2CCC(=O)NC2=O)C3=O)CC1 (stereo not drawn) [SIAIS151036, 4-((5-(4-(4-((5-chloro-4-((2-(isopropylsulfonyl)phenyl)amino)pyrimidin-2-yl)amino)-5-isopropoxy-2-methylphenyl)piperidin-1-yl)-5-oxopentyl)amino)-2-(2,6-dioxopiperidin-3-yl)isoindoline-1,3-dione] | 31 | – | – | – | – |
| COc1cc(N2CCC(N3CCN(C(=O)CCCCCCC(=O)N[C@H](C(=O)N4C[C@H](O)C[C@H]4C(=O)NCc4ccc(-c5scnc5C)cc4)C(C)(C)C)CC3)CC2)ccc1Nc1ncc(Cl)c(Nc2ccccc2P(C)(C)=O)n1 [SIAIS164124, (2S,4R)-1-((S)-2-(8-(4-(-(4-((5-chloro-4-((2-(dimethylphosphoryl)phenyl)amino)pyrimidin-2-yl)amino)-3-methoxyphenyl)piperidin-4-yl)piperazin-1-yl)-8-oxooctanamido)-3,3-dimethylbutanoyl)-4-hydroxy-N-(4-(4-methylthiazol-5-yl)benzyl)pyrrolidine-2-carboxamide] | – | 100 to 500 | 1 to 10 | 9.5 ± 8.1 | – |
| COc1cc(N2CCC(N3CCN(C(=O)CCC(=O)N[C@H](C(=O)N4C[C@H](O)C[C@H]4C(=O)NCc4ccc(-c5scnc5C)cc4)C(C)(C)C)CC3)CC2)ccc1Nc1ncc(Cl)c(Nc2ccccc2P(C)(C)=O)n1 [SIAIS164120, (2S,4R)-1-((S)-2-(4-(4-(1-(4-((5-chloro-4-((2-(dimethylphosphoryl)phenyl)amino)pyrimidin-2-yl)amino)-3-methoxyphenyl)piperidin-4-yl)piperazin-1-yl)-4-oxobutanamido)-3,3-dimethylbutanoyl)-4-hydroxy-N-(4-(4-methylthiazol-5-yl)benzyl)pyrrolidine-2-carboxamide] | – | 10 to 100 | 1 to 10 | 19.2 ± 8.8 | – |
| COc1cc(N2CCC(N3CCNCC3)CC2)ccc1Nc1ncc(Cl)c(Nc2ccccc2P(C)(C)=O)n1 [Brigatinib Analogue C(SIAIS164005), (2-((5-chloro-2-((2-methoxy-4-(4-(piperazin-1-yl)piperidin-1-yl)phenyl)amino)pyrimidin-4-yl)amino)phenyl)dimethylphosphine oxide] | – | – | – | 6.7 ± 3.1 | DC50 (nM)) in H3122 [2]: Not degrade; DC50 (nM) in SR [3, 5]: Not degrade; ALK protein degradation ([3]; SR cells, western blot, 16 hours, up to 500 nM): did not degrade ALK protein |
| COc1cc(N2CCC(N3CCN(C(=O)CCOCCOCCOCCOCCNc4cccc5c4C(=O)N(C4CCC(=O)NC4=O)C5=O)CC3)CC2)ccc1Nc1ncc(Cl)c(Nc2ccccc2P(C)(C)=O)n1 (stereo not drawn) [SIAIS164016, 4-((15-(4-(1-(4-((5-chloro-4-((2-(dimethylphosphoryl)phenyl)amino)pyrimidin-2-yl)amino)-3-methoxyphenyl)piperidin-4-yl)piperazin-1-yl)-15-oxo-3,6,9,12-tetraoxapentadecyl)amino)-2-(2,6-dioxopiperidin-3-yl)isoindoline-1,3-dione] | – | 1 to 10 | 1 to 10 | 11.2 ± 6.8 | – |
| COc1cc(N2CCC(NC(=O)CCCCCC(=O)N[C@H](C(=O)N3C[C@H](O)C[C@H]3C(=O)NCc3ccc(-c4scnc4C)cc3)C(C)(C)C)CC2)ccc1Nc1ncc(Cl)c(Nc2ccccc2P(C)(C)=O)n1 [SIAIS164146, N1-(1-(4-((5-chloro-4-((2-(dimethylphosphoryl)phenyl)amino)pyrimidin-2-yl)amino)-3-methoxyphenyl)piperidin-4-yl)-N7-((S)-1-((2S,4R)-4-hydroxy-2-((4-(4-methylthiazol-5-yl)benzyl)carbamoyl)pyrrolidin-1-yl)-3,3-dimethyl-1-oxobutan-2-yl)heptanediamide] | – | 0.1 to 10 | 1 to 10 | 3.6 ± 2.1 | – |
| COc1cc(N2CCC(NC(=O)CCCCCCNc3cccc4c3C(=O)N(C3CCC(=O)NC3=O)C4=O)CC2)ccc1Nc1ncc(Cl)c(Nc2ccccc2P(C)(C)=O)n1 (stereo not drawn) [SIAIS151123, N-(1-(4-((5-chloro-4-((2-(dimethylphosphoryl)phenyl)amino)pyrimidin-2-yl)amino)-3-methoxyphenyl)piperidin-4-yl)-7-((2-(2,6-dioxopiperidin-3-yl)-1,3-dioxoisoindolin-4-yl)amino)heptanamide] | – | 1 to 50 | 0.1 to 2 | 1.9 ± 1.5 | – |
| COc1cc(N2CCC(N3CCN(C(=O)CCOCCOCCOCCC(=O)N[C@H](C(=O)N4C[C@H](O)C[C@H]4C(=O)NCc4ccc(-c5scnc5C)cc4)C(C)(C)C)CC3)CC2)ccc1Nc1ncc(Cl)c(Nc2ccccc2P(C)(C)=O)n1 [SIAIS164033, (2S,4R)-1-((S)-2-(tert-butyl)-16-(4-(1-(4-((5-chloro-4-((2-(dimethylphosphoryl)phenyl)amino)pyrimidin-2-yl)amino)-3-methoxyphenyl)piperidin-4-yl)piperazin-1-yl)-4,16-dioxo-7,10,13-trioxa-3-azahexadecanoyl)-4-hydroxy-N-(4-(4-methylthiazol-5-yl)benzyl)pyrrolidine-2-carboxamide] | – | 100 to 500 | 100 to 500 | 50.1 ± 34.9 | – |
